# Results published in ChEMBL document CHEMBL1144758, “Semisynthetic studies on the manzamine alkaloids” (J Nat Prod, 2008).
# The source made the active and inactive calls. The rule behind the calls is not given here.
# Experiments:
# [1] = test system: Mycobacterium tuberculosis; test: Antibacterial activity against Mycobacterium tuberculosis H37Rv by microplate alamar blue assay; format: functional; parameters: Activity: concentration or dose not given beside the values; conditions: for MIC: Mycobacterium tuberculosis, H37Rv
# Microglia [2] = test: Antiinflammatory activity in Escherichia coli lipopolysaccharide-activated rat neonatal microglia assessed as inhibition of oxygen radical at 30 uM; format: functional
# Microglia [3] = test: Antiinflammatory activity in Escherichia coli lipopolysaccharide-activated rat neonatal microglia assessed as inhibition of eicosanoid thromboxane B2 at 30 uM; format: functional, cell-based
# P388 = test: Cytotoxicity against mouse P388 cells; format: functional, cell-based
# [4] = Antiinflammatory activity in Escherichia coli lipopolysaccharide-activated rat neonatal microglia assessed as inhibition of eicosanoid thromboxane B2; format: functional, cell-based
# Microglia [5] = test: Antiinflammatory activity in Escherichia coli lipopolysaccharide-activated rat neonatal microglia assessed as inhibition of oxygen radical; format: functional, cell-based
# [6] = test system: Mycobacterium tuberculosis; test: Antibacterial activity against Mycobacterium tuberculosis H37Rv at 0.5 ug/mL by microplate alamar blue assay; format: functional
Structure (SMILES),Activity [1],MIC [1],Activity (Microglia [2]),Activity (Microglia [3]),IC50 (P388),IC50 [4],Activity (Microglia [5]),Activity [6]
CC(=O)Oc1cccc2c1[nH]c1c([C@@H]3C=C4CC/C=C\CCCCN5CC[C@H]3[C@]3(C5)C(C(C)=O)=C5/C=C\CCCCN5[C@H]43)nccc12,95%,< 12.5 µg/mL,inactive,inactive,–,–,–,–
CC(=O)C1=C2/C(C(C)=O)=C\CCCCN2[C@H]2C3=C[C@H](c4nccc5c4[nH]c4ccccc45)[C@@H]4CCN(CCCC/C=C\CC3)C[C@]124,95%,< 12.5 µg/mL,inactive,inactive,–,–,–,–
CC(=O)Oc1cccc2c1[nH]c1c(C3=C[C@]4(OC(C)=O)CC/C=C\CCCCN5CC[C@H]3[C@@]3(C[C@H]6/C=C\CCCCN6[C@@H]34)C5)nccc12,95%,< 12.5 µg/mL,inactive,inactive,–,–,–,–
CC(=O)O/C(C)=C1\C[C@@H](OC(C)=O)CCCN2C1=C(C(C)=O)[C@@]13CN4CCCC/C=C\CCC(=C[C@@H](c5nccc6c5[nH]c5c(OC(C)=O)cccc56)[C@H]1CC4)[C@@H]23,95%,< 12.5 µg/mL,inactive,inactive,–,–,–,–
CC(=O)Oc1cccc2c1[nH]c1c([C@@H]3C=C4CC/C=C\CCCCN5CC[C@H]3[C@]3(C5)C(C(C)=O)=C5/C(C(C)=O)=C\CCCCN5[C@H]43)nccc12,95%,< 12.5 µg/mL,inactive,inactive,–,–,–,–
Oc1cccc2c1[nH]c1c(C3=C[C@]4(O)CCCCCCCCN5CC[C@H]3[C@@]3(C[C@H]6CCCCCCN6[C@@H]34)C5)nccc12,95%,< 12.5 µg/mL,inactive,inactive,–,–,–,–
Oc1cccc2c1[nH]c1c(C3=C[C@@]4(O)CC/C=C\CCCCN5CC[C@@H]3[C@]3(CC6/C=C\CCCCN6[C@H]34)C5)nccc12 (some centres undefined),100%,< 6.25 µg/mL,inactive,inactive,> 20 µg/mL,–,–,–
CC(=O)C1=C2/C=C\CCCCN2[C@H]2C3=C[C@H](c4nccc5c4[nH]c4ccccc45)[C@@H]4CCN(CCCC/C=C\CC3)C[C@]124,–,–,inactive,inactive,–,–,–,–
"Oc1cccc2c1[nH]c1c([C@H]3C[C@@]4(O)CCCCCCCCN5CC[C@@H]3[C@]3(C[C@@H]6CCCCCCN6[C@@H]43)C5)nccc12 [10,11,15,16,32,33-HEXAHYDRO-8-HYDROXYMANZAMINE A]",95%,< 12.5 µg/mL,–,–,–,1970 nM,inactive,–
"Oc1cccc2c1[nH]c1c(C3=C[C@@]4(O)CCCCCCCCN5CC[C@@H]3[C@]3(C[C@@H]6CCCCCCN6[C@H]34)C5)nccc12 [15,16,32,33-TETRAHYDRO-8-HYDROXYMANZAMINE A]",95%,< 12.5 µg/mL,inactive,inactive,–,–,–,–
"Oc1cccc2c1[nH]c1c(C3=C[C@]4(O)CC/C=C\CCCCN5CC[C@H]3[C@@]3(C[C@H]6CC[C@@H](O)CCCN6[C@@H]34)C5)nccc12 [31ALPHA-HYDROXY-32,33-DIHYDRO-8-HYDROXYMANZAMINE A]",61%,–,inactive,inactive,–,–,–,–
"Oc1cccc2c1[nH]c1c(C3=C[C@]4(O)CC/C=C\CCCCN5CC[C@H]3[C@@]3(C[C@H]6CC[C@H](O)CCCN6[C@@H]34)C5)nccc12 [31BETA-HYDROXY-32,33-DIHYDRO-8-HYDROXYMANZAMINE A]",100%,< 6.25 µg/mL,inactive,inactive,–,–,–,–
"O[C@]12C=C(c3nccc4c3[nH]c3ccccc34)[C@@H]3CCN(CCCC/C=C\CC1)C[C@@]31C[C@@H]3CCCCCCN3[C@H]12 [32,33-DIHYDROMANZAMINE A]",95%,< 12.5 µg/mL,inactive,inactive,–,–,–,–
Oc1cccc2c1[nH]c1c(C3=C[C@]4(O)CC/C=C\CCCCN5CC[C@H]3[C@@]3(C[C@H]6/C=C\CCCCN6[C@@H]34)C5)nccc12 [ENT-8-HYDROXYMENZAMINE A],95%,< 12.5 µg/mL,–,–,0.25 µg/mL,250 nM,inactive,–
O[C@]12C=C(c3nccc4c3[nH]c3ccccc34)[C@@H]3CCN(CCCC/C=C\CC1)C[C@@]31C[C@@H]3/C=C\CCCCN3[C@H]12 [MANZAMINE A],95%,< 12.5 µg/mL,–,–,–,< 100 nM,inactive,–
O=C1CCCN2[C@@H](CC1)C[C@]13CN4CCCC/C=C\CC[C@](O)(C=C(c5nccc6c5[nH]c5c(O)cccc56)C1CC4)[C@H]23 (some centres undefined) [MANZAMINE F],95%,< 12.5 µg/mL,inactive,inactive,–,–,–,–
O[C@@H]1CCCN2CC[C@@H]1O[C@@]13CC[C@@H](OC[C@]45CN6CCCC/C=C\CC[C@](O)(C=C(c7nccc8c7[nH]c7ccccc78)[C@@H]4CC6)[C@H]25)[C@@H](O)CCN1[C@@H]1[C@]2(CN4CCCC/C=C\CC[C@]1(O)C=C(c1nccc5c1[nH]c1ccccc15)[C@@H]2CC4)C3 [NEO-KAULUAMINE],44%,–,–,–,–,–,–,–
CO[C@H]1/C=C/O[C@@]2(C)Oc3c(C)c(O)c4c(O)c(c(/C=N/N5CCN(C)CC5)c(O)c4c3C2=O)NC(=O)/C(C)=C\C=C\[C@H](C)[C@H](O)[C@@H](C)[C@@H](O)[C@@H](C)[C@H](OC(C)=O)[C@@H]1C [RIFAMPIN],–,–,–,–,–,–,–,100%
O[C@]12C=C(c3nccc4c3[nH]c3ccccc34)[C@@H]3CCN(CCCCCCCC1)C[C@@]31C[C@@H]3CCCCCCN3[C@H]12 [TETRAHYDROMANZAMINE A],95%,< 12.5 µg/mL,inactive,inactive,–,–,–,–
